Reference: article PMC9610702, “Synthesis, Characterization, and Biological Evaluation of Tetrahydropyrimidines: Dual-Activity and Mechanism of Action” (Pharmaceutics, 2022)
Converted amounts (≈) assume the structure as drawn. Like-named read-outs stand apart in the source and are kept apart here.

Assays:
α-glucosidase = α-glucosidase inhibitory activity; assay type: biochemical; conditions: average ± SD of two experiments
Description: (§1) All materials and methods used for biological examination (antibacterial, antifungal, anticancer, and α-glucosidase inhibitory activities) and crystal structure determination are presented in the Supplementary Materials, File S1.

[1] = test system: Trichophyton mentagrophytes; assay: antifungal MIC, broth tube dilution; assay type: cell-based
Description: (§2) In this paper, the synthesis, characterization, and biological evaluation of the novel tetrahydropyrimidines—THPMs are described. THPMs are well-known for wide pharmacological activities such as antimicrobial, anticancer, antiviral, etc. This research includes obtained results of in vitro antimicrobial, anticancer, and α-glucosidase inhibitory activities of the eleven novel THPMs. An antibiotic assessment was done against five bacteria (two Gram-positive and three Gram-negative) and five fungi by determining the minimal inhibitory concentration (MIC), using the broth tube dilution method. […] The cytotoxic activity was performed on the tumor cell lines (HeLa, K562, and MDA-MB-231) and normal cells (MRC-5). The best antitumor activity was shown by compounds 4b and 4k against HeLa cell lines.
as §1

Penicillium italicum = assay: antifungal MIC, broth tube dilution; assay type: cell-based
Description: as §2, §1

Mucor mucedo = assay: antifungal MIC, broth tube dilution; assay type: cell-based
Description: as §2, §1

Aspergillus flavus = assay: antifungal MIC, broth tube dilution; assay type: cell-based
Description: as §2, §1

Aspergillus niger = assay: antifungal MIC, broth tube dilution; assay type: cell-based
Description: as §2, §1

Proteus mirabilis = assay: antibacterial MIC, broth tube dilution; assay type: cell-based; conditions: ND = not detected
Description: as §2, §1

Escherichia coli = assay: antibacterial MIC, broth tube dilution; assay type: cell-based
Description: as §2, §1

Staphylococcus aureus = assay: antibacterial MIC, broth tube dilution; assay type: cell-based
Description: as §2, §1

Klebsiella oxytoca = assay: antibacterial MIC, broth tube dilution; assay type: cell-based
Description: as §2, §1

Bacillus subtilis = assay: antibacterial MIC, broth tube dilution; assay type: cell-based
Description: as §2, §1

HeLa cells [2] = assay: cytotoxic activity; assay type: cell-based; conditions: for IC50: Homo sapiens, read-out: IC50 Average ± SD; for IC50 / IC50 Average ± SD: HeLa, three independent experiments in triplicate
Description: (§3) All materials and methods used for biological examination (antibacterial, antifungal, anticancer, and α-glucosidase inhibitory activities) and crystal structure determination are presented in the Supplementary Materials, File S1. The cytotoxic activity of eleven novel compounds was examined against HeLa, K562, MDA-MB-231, and MRC-5. The tested compounds exerted concentration-dependent cytotoxic effects on cell lines. […] Compared to compound 4j, 4k has a methyl group in para position of benzoyl fragment; so, probably this structural difference is responsible for better activity and selectivity of compound 4k on HeLa (43.63 ± 1.49 µM) and K562 (39.11 ± 2.90 µM).

MDA-MB-231 cells = assay: cytotoxic activity; assay type: cell-based; conditions: Homo sapiens, three independent experiments in triplicate, read-out: IC50 Average ± SD
Description: as §3

K562 cells = assay: cytotoxic activity; assay type: cell-based; conditions: Homo sapiens; K562; three independent experiments in triplicate; read-out: IC50 Average ± SD
Description: as §3

[3] = test system: normal human lung fibroblasts MRC-5; assay: cytotoxic activity on normal cells; assay type: cell-based; conditions: MRC5, MRC-5 normal fibroblasts, three independent experiments in triplicate, read-out: IC50 Average ± SD
Description: as §1
The cytotoxic activity of eleven novel compounds was examined against HeLa, K562, MDA-MB-231, and MRC-5.
The cytotoxic activity was examined against HeLa, K562, MDA-MB-231 cells, and normal human lung fibroblasts MRC-5. […] In addition, the effects of the 4k and 4b on the cell cycle were examined.

HeLa cells [4] = assay: cell-cycle phase distribution; assay type: cell-based; conditions: 24 h, IC50 and 2IC50 concentrations, vs untreated control
Description: as §1
The observed changes in the amounts of treated cells within subG1 and G1 phases of the cell cycle were accompanied with decreased percentages of cells within the S and G2/M phases.
The data shown represent the average ± standard deviation of two independent experiments.

HeLa cells [5] = assay: morphological evaluation of cell death mode, acridine orange/ethidium bromide staining; assay type: cell-based; conditions: 24 h, 2IC50 concentration
Protocol: as §1
The photomicrographs of control HeLa cells and HeLa cells incubated for 24 h with 2IC50 concentrations of the compounds 4b and 4k and stained with a mixture of acridine orange/ethidium bromide are presented in Figure 5. […] Orange-red-stained shrunken cells with condensed chromatin in later stages of apoptosis were detected as well. […] The proapoptotic effect of compound 4b was to some extent stronger when comparing with effect of compound 4k.
Figure 5 Photomicrographs of acridine orange/ethidium bromide-stained control HeLa cells and HeLa cells incubated with 2IC50 concentrations of compounds 4b and 4k during 24 h (magnification 20×). Representative photomicrographs are shown.

SMILES	IC50 (α-glucosidase)	MIC [1]	MIC (Penicillium italicum)	MIC (Mucor mucedo)	MIC (Aspergillus flavus)	MIC (Aspergillus niger)	MIC (Proteus mirabilis; read-out: MIC)	MIC (Escherichia coli)	MIC (Staphylococcus aureus)	MIC (Klebsiella oxytoca)	MIC (Bacillus subtilis)	IC50 (HeLa cells [2])	IC50 (MDA-MB-231 cells)	IC50 (K562 cells)	IC50 [3]	IC50 Average ± SD (HeLa cells [2])	further results
COC(=O)C1=C(C)N(C)C(=S)NC1c1cc(Br)c(O)c(OC)c1 (stereo not drawn) [4a]	313 ± 7.73 µM	400 µg/mL (≈ 0.997 mM)	1620 µg/mL (≈ 4.04 mM)	1620 µg/mL (≈ 4.04 mM)	1620 µg/mL (≈ 4.04 mM)	1620 µg/mL (≈ 4.04 mM)	810 µg/mL (≈ 2.02 mM)	1620 µg/mL (≈ 4.04 mM)	1620 µg/mL (≈ 4.04 mM)	1620 µg/mL (≈ 4.04 mM)	3250 µg/mL (≈ 8.1 mM)	97.4 ± 5.4 µM	144 ± 8.29 µM	79 ± 7.49 µM	187 ± 4.66 µM		
COC(=O)C1=C(C)N(C)C(=S)NC1c1cc(I)c(O)c(OC)c1 (stereo not drawn) [4b]	292 ± 6.67 µM	400 µg/mL (≈ 0.892 mM)	1620 µg/mL (≈ 3.61 mM)	1620 µg/mL (≈ 3.61 mM)	1620 µg/mL (≈ 3.61 mM)	810 µg/mL (≈ 1.81 mM)	810 µg/mL (≈ 1.81 mM)	1620 µg/mL (≈ 3.61 mM)	1620 µg/mL (≈ 3.61 mM)	1620 µg/mL (≈ 3.61 mM)	3250 µg/mL (≈ 7.25 mM)	52.6 ± 4.45 µM	116 ± 8.71 µM	76.8 ± 5.01 µM	112 ± 10.8 µM		percentage of HeLa cells in the G1 phase (HeLa cells [4]): pronounced increase; percentage of dead cells within subG1 phase (HeLa cells [4]): increase; percentages of cells within the S and G2/M phases (HeLa cells [4]): decreased; cell death mode (apoptosis) (HeLa cells [5]): induce apoptotic cell death; selectivity coefficient (HeLa cells [2]; HeLa compared with MRC-5 cells): 2.13
COC(=O)C1=C(C)N(C)C(=S)NC1c1cc(OC)c(O)c([N+](=O)[O-])c1 (stereo not drawn) [4c]		400 µg/mL (≈ 1.09 mM)	1620 µg/mL (≈ 4.41 mM)	1620 µg/mL (≈ 4.41 mM)	400 µg/mL (≈ 1.09 mM)	810 µg/mL (≈ 2.2 mM)	1620 µg/mL (≈ 4.41 mM)	1620 µg/mL (≈ 4.41 mM)	1620 µg/mL (≈ 4.41 mM)	1620 µg/mL (≈ 4.41 mM)	3250 µg/mL (≈ 8.85 mM)	> 200 µM	> 200 µM	180 ± 9.15 µM	196 ± 5.89 µM	very low cytotoxicity	
COC(=O)C1=C(C)N(C)C(=S)NC1c1cc(OC)c(OC(C)=O)c([N+](=O)[O-])c1 (stereo not drawn) [4d]	1120 ± 20.6 µM	400 µg/mL (≈ 0.977 mM)	1620 µg/mL (≈ 3.96 mM)	1620 µg/mL (≈ 3.96 mM)	1620 µg/mL (≈ 3.96 mM)	1620 µg/mL (≈ 3.96 mM)	810 µg/mL (≈ 1.98 mM)	1620 µg/mL (≈ 3.96 mM)	810 µg/mL (≈ 1.98 mM)	1620 µg/mL (≈ 3.96 mM)	3250 µg/mL (≈ 7.94 mM)	> 200 µM	> 200 µM	165 ± 8.5 µM	193 ± 10.3 µM	very low cytotoxicity	

Now those with a lower MIC [1], led by results:

IC50 (α-glucosidase)	MIC [1]	MIC (Penicillium italicum)	MIC (Mucor mucedo)	MIC (Aspergillus flavus)	MIC (Aspergillus niger)	MIC (Proteus mirabilis; read-out: MIC)	MIC (Escherichia coli)	MIC (Staphylococcus aureus)	MIC (Klebsiella oxytoca)	MIC (Bacillus subtilis)	SMILES	IC50 (HeLa cells [2])	IC50 (MDA-MB-231 cells)	IC50 (K562 cells)	IC50 [3]	IC50 Average ± SD (HeLa cells [2])	further results
674.8 ± 5.65 µM	200 µg/mL (≈ 0.528 mM)	1620 µg/mL (≈ 4.28 mM)	1620 µg/mL (≈ 4.28 mM)	1620 µg/mL (≈ 4.28 mM)	1620 µg/mL (≈ 4.28 mM)		1620 µg/mL (≈ 4.28 mM)	3250 µg/mL (≈ 8.59 mM)	3250 µg/mL (≈ 8.59 mM)	3250 µg/mL (≈ 8.59 mM)	CCC(=O)Oc1ccc(C2NC(=S)N(C)C(C)=C2C(=O)OC)cc1OC (stereo not drawn) [4e]	197 ± 3.93 µM	> 200 µM	149 ± 5.74 µM	128 ± 3.2 µM		MIC (Proteus mirabilis): no inhibitory effect
767.9 ± 5.91 µM	200 µg/mL (≈ 0.512 mM)	1620 µg/mL (≈ 4.15 mM)	1620 µg/mL (≈ 4.15 mM)	1620 µg/mL (≈ 4.15 mM)	810 µg/mL (≈ 2.07 mM)	1620 µg/mL (≈ 4.15 mM)	3250 µg/mL (≈ 8.32 mM)	3250 µg/mL (≈ 8.32 mM)	3250 µg/mL (≈ 8.32 mM)	3250 µg/mL (≈ 8.32 mM)	COC(=O)C1=C(C)N(C)C(=S)NC1c1ccc(OC(=O)C2CC2)c(OC)c1 (stereo not drawn) [4f]	135 ± 9.32 µM	161 ± 9.69 µM	123 ± 8.52 µM	196 ± 5.54 µM		
